Measurements reported in PubChem BioAssay (NCI).
Where “and” joins values, the source holds several entries; their conditions need not be identical. Identical values can stand only once.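 Cells were grown in 96-well plates and exposed to each compound for 48 hours at five concentrations; endpoints were interpolated linearly between bracketing concentrations, or set to the highest concentration if not reached. Here, GI50 denotes the concentration required for 50% inhibition of growth. At the TGI there is no net growth.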

What was measured:
Test in all cases: DTP human tumour cell line panel, 48 h
MCF7 breast = test system: MCF7 breast
MDA-MB-435 = test system: MDA-MB-435
NCI/ADR-RES ovarian = test system: NCI/ADR-RES ovarian
SF-295 CNS = test system: SF-295 CNS
SNB-75 CNS = test system: SNB-75 CNS
UO-31 renal = test system: UO-31 renal
NCI-H460 lung = test system: NCI-H460 lung
OVCAR-4 ovarian = test system: OVCAR-4 ovarian
TK-10 renal = test system: TK-10 renal
U251 CNS = test system: U251 CNS

SMILES	GI50 (MCF7 breast)	TGI (MCF7 breast)	GI50 (MDA-MB-435) [µM]	TGI (MDA-MB-435) [µM]	GI50 (NCI/ADR-RES ovarian)	TGI (NCI/ADR-RES ovarian)	GI50 (SF-295 CNS)	TGI (SF-295 CNS)	GI50 (SNB-75 CNS) [µM]	TGI (SNB-75 CNS) [µM]	GI50 (UO-31 renal) [µM]	TGI (UO-31 renal) [µM]	GI50 (NCI-H460 lung) [µM]	TGI (NCI-H460 lung) [µM]	GI50 (OVCAR-4 ovarian) [µM]	TGI (OVCAR-4 ovarian) [µM]	GI50 (TK-10 renal) [µM]	TGI (TK-10 renal) [µM]	GI50 (U251 CNS) [µM]	TGI (U251 CNS) [µM]
N/C(=N\c1nc2ccccc2s1)NC(=O)Nc1cccc2ccccc12	0.209 µM	> 100 µM	0.0321	0.143	0.144 µM	1.34 µM	0.173 µM	1.83 µM	0.198	1.1	0.802	> 100								
O=C1OCC2=C1C(c1cccc(C(F)(F)F)c1)c1cc3c(cc1N2CCO)CCC3 (stereo not drawn)	0.17 µM	7.65 µM	0.05	0.159	0.153 µM	6.82 µM	0.138 µM	6.21 µM			0.323	9.01	0.167	5.4	1.05	11.2	0.359	10.9	0.199	7.92
CCCCCCCCCCCCCCCCn1cc[n+](Cc2ccccc2)c1C	1.12 µM and 0.289 µM	2.39 µM and 0.968 µM			8.02 µM and 1.55 µM	48.6 µM and 7.01 µM	0.866 µM and 0.263 µM	2.28 µM and 1.22 µM	0.262	0.899	1.49	2.99	0.479	1.8	0.451	4.55	0.86	2.2		
O=CN1CCN(C=S)CC1								> 100 µM		> 100		> 100		> 100		> 100		> 100		> 100
NC(=O)c1c2c(cc3c(=O)c4ccccc4[nH]c13)CCCC2								> 100 µM		> 75		> 100		> 100		> 100		> 100		> 100
CCC[CH2][Sn]1([CH2]CCC)[O]C(=O)CN=Cc2ccccc2[O]1							1.14 µM	2.37 µM	0.282	0.849	0.512	1.77	1.28	2.6	0.881	2.32	0.292	0.729	0.305	1.09
CC1CC2(CCC1OCc1ccccc1)OCCO2 (stereo not drawn)								> 100 µM				> 100		> 100		> 100		> 100		> 100
COc1cc(OC)cc(-c2cncn2-c2ccc(-c3nc4cc(OC)cc(OC)c4s3)cc2)c1	3.82 µM	> 100 µM			2.58 µM	> 100 µM	2.4 µM	43.1 µM	3.28	17.9			4.41	> 100			16.8	> 100	4.76	> 100
COc1ccc(-c2cc(-c3nnc(SCC(=O)Nc4ccc(C(C)=O)cc4)o3)c3ccccc3n2)cc1	> 100 µM	> 100 µM	> 100	> 100	> 100 µM	> 100 µM	26.4 µM	> 100 µM	3.65	22.6	> 100	> 100	> 100	> 100			28.7	78.6	10.2	55.9
O=C1C=CC(=O)c2c1ncc1c2nc2sccn21	20.6 µM	> 100 µM	16.3	39.2	29.3 µM	> 100 µM	48.3 µM	> 100 µM			13.8	72.3	27.2	> 100	27.7	59.8	18.3	33.5	18.3	43.9
NC1=NC(c2ccc(F)cc2)C2=C(N1)c1ccc3ccccc3c1OCC2 (stereo not drawn)	4.69 µM	> 100 µM			43.2 µM	> 100 µM	3.47 µM	48.4 µM	16.5	70.5	> 100	> 100	6.96	> 100	> 100	> 100	14.5	> 100	8.49	> 100
CC1=CC2CC(C)C1(C)CCc1ccoc12 (stereo not drawn)								> 100 µM		> 100		> 100		> 100		> 100		> 100		> 100
COC(=O)C1=Cc2c(cc(OC)c(OC)c2OC)[C@H](c2ccc(OC)c(OC)c2OC)C1C(=O)OC (stereo partly drawn)								> 100 µM		> 100		> 100		> 100		> 100		> 100		> 100
Cc1c(O)c(=O)ccn1CCO								> 100 µM		> 100		> 100		> 100		> 100		> 100		> 100
COc1ccccc1NC(=O)C1=C(C)NC(C)=C(C(=O)Nc2ccccc2OC)C1c1cccc2c1OCO2								> 100 µM		50.9		> 100		> 100		> 100		> 100		> 100
CCOC(=O)C(=O)Nc1ccc(Cl)c(C(F)(F)F)c1								> 100 µM		> 100		> 100				> 100		> 100		> 100
COc1cc2c(cc1OCCCN1CCN(c3cc(=O)oc4c(C)c(OC)ccc34)CC1)N=C[C@@H]1CCCN1C2=O	0.787 µM	> 39.7 µM	1.59	3.79	16.6 µM	> 88.5 µM	2.49 µM	> 30.4 µM	0.866	3.22			1.45	> 26.4	2	10.1	1.67	> 100	1.58	> 100
COc1ccc(-c2ccccc2)cc1-c1c(Nc2cc(Cl)cc(Cl)c2O)c(=O)c1=O	1.3 µM	> 50 µM			1.38 µM	> 50 µM	1.26 µM	3.69 µM	1.03	3.61	1.25	> 50	1.55	> 50	1.59	> 50	2.84	> 50	1.63	> 50
